Legend:
[1] = system: K1 strain, a drug resistant strain of Plasmodium falciparum; test: In vitro antimalarial assay (p-LDH, Malstat), K1 strain; assay type: cell-based; settings: P. falciparum K1 (drug resistant), 72 h culture, p-LDH readout, read-out: Antimalarial activity (IC50 value), Strain K1
Procedure, shortened: (§1)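 IC50 derived from concentration-response of parasite lactate dehydrogenase signal (Malstat reagent, NBT/PES formazan at 655 nm) after freeze-thaw lysis. Infected erythrocytes (hematocrit 2%, parasitaemia 0.5 or 1%) exposed 72 h to 12.5–0.0001 μM final compound under 3% O2-4% CO2-93% N2, FCR3 and K1 alike.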

[2] = system: FCR3 strain, a drug sensitive strain of Plasmodium falciparum; test: In vitro antimalarial assay (p-LDH, Malstat), FCR3 strain; assay type: cell-based; settings: P. falciparum FCR3 (drug sensitive), 72 h culture, p-LDH readout, read-out: Antimalarial activity (IC50 value), Strain FCR3
Procedure, shortened: as §1

Row | Structure (SMILES) | IC50 [1] | IC50 [2]
1 | Cc1cc(C)nc(Nc2nc(Nc3ccn4ccnc4c3)cc(N3CCC(F)(F)C3)n2)c1 [Example 138, 6-(3,3-difluoropyrrolidin-1-yl)-N2-(4,6-dimethylpyridin-2-yl)-N4-(imidazo[1,2-a]pyridin-7-yl)pyrimidine-2,4-diamine] | 100 to 1000 nM | < 100 nM
2 | c1cc(Nc2nc(Nc3ccn4ccnc4c3)cc(N3CCCCC3)n2)nc(C2CC2)c1 [Example 96, N2-(6-cyclopropylpyridin-2-yl)-N4-(imidazo[1,2-a]pyridin-7-yl)-6-(piperidin-1-yl)pyrimidine-2,4-diamine] | 100 to 1000 nM | 100 to 1000 nM
3 | CCCCc1cccc(Nc2nc(Nc3ccn4ccnc4c3)cc(N3C[C@H]4CCC[C@H]4C3)n2)n1 [Example 179, N2-(6-butylpyridin-2-yl)-6-((3aR,6aS)-hexahydrocyclopenta[c]pyrrol-2(1H)-yl)-N4-(imidazo [1,2-a]pyridin-7-yl)pyrimidine-2,4-diamine] | 100 to 1000 nM | 100 to 1000 nM
4 | Cc1cccc(Nc2nc(Nc3ccn4ccnc4c3)cc(N3CCN(C)[C@@H](C)C3)n2)n1 [Example 40, (S)-6-(3,4-dimethylpiperazin-1-yl)-N4-(imidazo[1,2-a]pyridin-7-yl)-N2-(6-methylpyridin-2-yl)pyrimidine-2,4-diamine] | 1000 to 10000 nM | 1000 to 10000 nM
5 | CCCCc1cc(OC)cc(Nc2nc(Nc3ccn4ccnc4c3)cc(N3CCCCC3)n2)n1 [Example 197, N2-(6-butyl-4-methoxypyridin-2-yl)-N4-(imidazo[1,2-a]pyridin-7-yl)-6-(piperidin-1-yl) pyrimidine-2,4-diamine] | 100 to 1000 nM | 100 to 1000 nM
6 | CCc1ccnc(Nc2nc(Nc3ccn4ccnc4c3)cc(N3CCN[C@H](C)C3)n2)c1 [Example 102, (R)-N2-(4-ethylpyridin-2-yl)-N4-(imidazo[1,2-a]pyridin-7-yl)-6-(3-methylpiperazin-1-yl)pyrimidine-2,4-diamine] | 100 to 1000 nM | 100 to 1000 nM
7 | CCc1ccnc(Nc2nc(Nc3ccn4ccnc4c3)cc(N3CCC(CO)CC3)n2)c1 [Example 119, (1-(2-((4-ethylpyridin-2-yl)amino)-6-(imidazo[1,2-a]pyridin-7-ylamino)pyrimidin-4-yl)piperidin-4-yl)methanol] | < 100 nM | < 100 nM
8 | CCCCc1cccc(Nc2nc(Nc3ccn4ccnc4c3)cc(N3CCC4(CCOCC4)C3)n2)n1 [Example 169, N2-(6-butylpyridin-2-yl)-N4-(imidazo[1,2-a]pyridin-7-yl)-6-(8-oxa-2-azaspiro[4.5]decan-2-yl) pyrimidine-2,4-diamine] | < 100 nM | < 100 nM
9 | COc1cc(C)nc(Nc2nc(Nc3ccn4ccnc4c3)cc(N3CCCCC3)n2)c1 [Example 190, N4-(imidazo[1,2-a]pyridin-7-yl)-N2-(4-methoxy-6-methylpyridin-2-yl)-6-(piperidin-1-yl) pyrimidine-2,4-diamine] | < 100 nM | < 100 nM
10 | Cc1cc(C)nc(Nc2nc(Nc3ccn4ccnc4c3)cc(N3CCCC3)n2)c1 [Example 135, N2-(4,6-dimethylpyridin-2-yl)-N4-(imidazo[1,2-a]pyridin-7-yl)-6-(pyrrolidin-1-yl)pyrimidine-2,4-diamine] | < 100 nM | < 100 nM
11 | Cc1cc(C)nc(Nc2nc(Nc3ccn4ccnc4c3)cc(-n3ccnc3)n2)c1 [Example 46] | 100 to 1000 nM | < 100 nM
12 | Cc1cc(C)nc(Nc2nc(Nc3ccn4ccnc4c3)cc(N3CC4(COC4)C3)n2)c1 [Example 178, N2-(4,6-dimethylpyridin-2-yl)-N4-(imidazo[1,2-a]pyridin-7-yl)-6-(2-oxa-6-azaspiro[3.3]heptan-6-yl)pyrimidine-2,4-diamine] | < 100 nM | < 100 nM
13 | CCc1ccnc(Nc2nc(Nc3ccn4ccnc4c3)cc(N3CCN(C(=O)OC(C)(C)C)[C@H](C)C3)n2)c1 [Example 100, (R)-tert-butyl 4-(2-((4-ethylpyridin-2-yl)amino)-6-(imidazo[1,2-a]pyridin-7-ylamino)pyrimidin-4-yl)-2-methylpiperazine-1-carboxylate] | 100 to 1000 nM | 100 to 1000 nM
14 | CC(C)COc1cccc(Nc2nc(Nc3ccn4ccnc4c3)cc(N3CCCC3)n2)n1 [Example 158, N4-(imidazo[1,2-a]pyridin-7-yl)-N2-(6-isobutoxypyridin-2-yl)-6-(pyrrolidin-1-yl)pyrimidine-2,4-diamine] | 100 to 1000 nM | < 100 nM
15 | Cc1cc(C)nc(Nc2nc(Nc3ccn4ccnc4c3)cc(N3C[C@H]4CCC[C@H]4C3)n2)c1 [Example 176, N2-(4,6-dimethylpyridin-2-yl)-6-[(3aR,6aS)-hexahydrocyclopenta [c]pyrrol-2(1H)-yl]-N4-(imidazo[1,2-a]pyridin-7-yl) pyrimidine-2,4-diamine] | < 100 nM | < 100 nM
16 | CCc1ccnc(Nc2nc(Nc3ccn4ccnc4c3)cc(N3CCC(N4CCCC4)CC3)n2)c1 [Example 127, N2-(4-ethylpyridin-2-yl)-N4-(imidazo[1,2-a]pyridin-7-yl)-6-(4-(pyrrolidin-1-yl)piperidin-1-yl)pyrimidine-2,4-diamine] | < 100 nM | < 100 nM
17 | CCCCc1cccc(Nc2nc(Nc3ccn4ccnc4c3)cc(N3CCC4(CCCC4)C3)n2)n1 [Example 173, N2-(6-butylpyridin-2-yl)-N4-(imidazo[1,2-a]pyridin-7-yl)-6-(2-azaspiro[4.4]nonan-2-yl) pyrimidine-2,4-diamine] | 100 to 1000 nM | 100 to 1000 nM

The remaining lines, values ahead:

Row | IC50 [1] | IC50 [2] | Structure (SMILES)
18 | < 100 nM | < 100 nM | CCOCCc1cccc(Nc2nc(Nc3ccn4ccnc4c3)cc(N3CCCC3)n2)n1 [Example 160, N2-[6-(2-ethoxyethyl)pyridin-2-yl]-N4-(imidazo[1,2-a]pyridin-7-yl)-6-(pyrrolidin-1-yl) pyrimidine-2,4-diamine]
19 | < 100 nM | < 100 nM | Cc1ccc(Nc2nc(Nc3ccn4ccnc4c3)cc(N3CCOCC3)n2)nc1 [Example 18, N4-(Imidazo[1,2-a]pyridin-7-yl)-N2-(5-methylpyridin-2-yl)-6-morpholinopyrimidine-2,4-diamine]
20 | < 100 nM | < 100 nM | CC(C)Oc1cccc(Nc2nc(Nc3ccn4ccnc4c3)cc(N3CCCC3)n2)n1 [Example 153, N4-(imidazo[1,2-a]pyridin-7-yl)-N2-(6-isopropoxypyridin-2-yl)-6-(pyrrolidin-1-yl)pyrimidine-2,4-diamine]
21 | 1000 to 10000 nM | 1000 to 10000 nM | CCc1ccnc(Nc2nc(Nc3ccn4ccnc4c3)cc(N3CCOCCOCCOCC3)n2)c1 [Example 120, N2-(4-ethylpyridin-2-yl)-N4-(imidazo[1,2-a]pyridin-7-yl)-6-(1,4,7-trioxa-10-azacyclododecan-10-yl)pyrimidine-2,4-diamine]
22 | < 100 nM | < 100 nM | CC(C)Oc1ccc(Nc2nc(Nc3ccn4ccnc4c3)cc(N3CCOCC3)n2)cn1 [Example 15, N4-(Imidazo[1,2-a]pyridin-7-yl)-N2-(6-isopropoxypyridin-3-yl)-6-morpholinopyrimidine-2,4-diamine]
23 | 100 to 1000 nM | < 100 nM | CCCc1cccc(Nc2nc(Nc3ccn4ccnc4c3)cc(N3CCOCC3)n2)n1 [Example 108, N4-(imidazo[1,2-a]pyridin-7-yl)-6-morpholino-N2-(6-propylpyridin-2-yl)pyrimidine-2,4-diamine]
24 | < 100 nM | < 100 nM | COc1ccc(Nc2nc(Nc3ccn4ccnc4c3)cc(N3CCOCC3)n2)cn1 [Example 1, N4-(Imidazo[1,2-a]pyridin-7-yl)-N2-(6-methoxypyridin-3-yl)-6-morpholinopyrimidine-2,4-diamine]
25 | 100 to 1000 nM | 100 to 1000 nM | Cc1nc(Nc2nc(Nc3ccn4ccnc4c3)cc(N3CCOCC3)n2)cc(C2CC2)c1F [Example 53, N2-(4-Cyclopropyl-5-fluoro-6-methylpyridin-2-yl)-N4-(imidazo [1,2-a]pyridin-7-yl)-6-morpholinopyrimidine-2,4-diamine]
26 | < 100 nM | < 100 nM | CCc1ccnc(Nc2nc(Nc3ccn4ccnc4c3)cc(N3CCC(N4CCOCC4)CC3)n2)c1 [Example 112, N2-(4-ethylpyridin-2-yl)-N4-(imidazo[1,2-a]pyridin-7-yl)-6-(4-morpholinopiperidin-1-yl)pyrimidine-2,4-diamine]
27 | 100 to 1000 nM | 100 to 1000 nM | CC(C)c1ccnc(Nc2nc(Nc3ccn4ccnc4c3)cc(N3CCCCC3)n2)c1 [Example 73, N4-(imidazo[1,2-a]pyridin-7-yl)-N2-(4-isopropylpyridin-2-yl)-6-(piperidin-1-yl)pyrimidine-2,4-diamine]
28 | < 100 nM | < 100 nM | CCOc1ccc(Nc2nc(Nc3ccn4ccnc4c3)cc(N3CCOCC3)n2)cn1 [Example 7, N2-(6-Ethoxypyridin-3-yl)-N4-(imidazo[1,2-a]pyridin-7-yl)-6-morpholinopyrimidine-2,4-diamine]
29 | 1000 to 10000 nM | 100 to 1000 nM | CN(C)CCOc1ccc(Nc2nc(Nc3ccn4ccnc4c3)cc(N3CCOCC3)n2)cn1 [Example 61, N2-(6-(2-(dimethylamino)ethoxy)pyridin-3-yl)-N4-(imidazo[1,2-a]pyridin-7-yl)-6-morpholino-pyrimidine-2,4-diamine]
30 | < 100 nM | < 100 nM | OCCOc1cccc(Nc2nc(Nc3ccn4ccnc4c3)cc(N3CCCC3)n2)n1 [Example 157, 2-[(6-{[4-(imidazo[1,2-a]pyridin-7-ylamino)-6-(pyrrolidin-1-yl)pyrimidin-2-yl]amino}pyridin-2-yl)oxy]ethanol]
31 | 100 to 1000 nM | < 100 nM | c1cc(Nc2nc(Nc3ccn4ccnc4c3)cc(N3CCOCC3)n2)nc(C2CC2)c1 [Example 110, N2-(6-cyclopropylpyridin-2-yl)-N4-(imidazo[1,2-a]pyridin-7-yl)-6-morpholinopyrimidine-2,4-diamine]
